Measured values from patent US20130317073A1, “METHODS OF PEST CONTROL IN SOYBEAN” (SYNGENTA LIMITED, priority 2011, published 2013).

System: Euschistus heros
Test: Euschistus heros (neotropical brown stink bug) contact/feeding activity on sprayed soybean plants
Format: in vivo
Conditions: 120 h, N-2 nymphs on sprayed 2 week old soybean plants, evaluation 5 days after infestation, average of two replicates, read-out: mortality and growth effects; for mortality at 3 ppm: Rate 3 ppm; for mortality at 6 ppm: Rate 6 ppm; for mortality at 12.5 ppm: Rate 12.5 ppm
Method: Euschistus heros (Neotropical Brown Stink Bug) (Contact/Feeding Activity)
2 week old soybean plants are sprayed in a turn table spray chamber with the diluted spray solutions. After drying, 2 soybean seeds are added and plants are infested with 10 N-2 nymphs of the neotropical brown stink bug Euschistus heros in plastic test boxes. Boxes are incubated in a climate chamber at 25° C. and 60% RH. Evaluation is done 5 days after infestation on mortality and growth effects. The data is an average of two replicates.

SMILES | mortality at 3 ppm | mortality at 6 ppm | mortality at 12.5 ppm
Cc1cc(C2=NOC(c3cc(Cl)cc(Cl)c3)(C(F)(F)F)C2)ccc1C(=O)NC1CSC1 (stereo not drawn) [Compound 1] | 65% | 80% | 85%
CCCCNC(=O)c1ccc(C2=NOC(c3cc(Cl)cc(Cl)c3)(C(F)(F)F)C2)cc1C (stereo not drawn) [Compound 8] | 5% | 35% | 95%
O=C(CNC(=O)c1ccc(C2=NOC(c3cc(Cl)cc(Cl)c3)(C(F)(F)F)C2)cc1)CC(F)(F)F (stereo not drawn) [Compound 7] | 5% | 20% | 60%
Cc1cc(C2=NOC(c3cc(Cl)cc(Cl)c3)(C(F)(F)F)C2)ccc1C(=O)NCC(=O)CC(F)(F)F (stereo not drawn) [Compound 5] | 85% | 90% | 100%
Cc1cc(C2=NOC(c3cc(Cl)cc(Cl)c3)(C(F)(F)F)C2)ccc1C(=O)NC1(C)CSC1 (stereo not drawn) [Compound 3] | 0% | 20% | 75%
Cc1cc(C2=NOC(c3cc(Cl)cc(Cl)c3)(C(F)(F)F)C2)ccc1C(=O)NCC(F)(F)F (stereo not drawn) [Compound 9] | 15% | 75% | 70%
COC(=O)N1CC(NC(=O)c2ccc(C3=NOC(c4cc(Cl)cc(Cl)c4)(C(F)(F)F)C3)cc2C)C1 (stereo not drawn) [Compound 4] | 15% | 25% | 35%
O=C(CNC(=O)c1ccc(C2=NOC(c3cc(Cl)cc(Cl)c3)(C(F)(F)F)C2)c2ccccc12)CC(F)(F)F (stereo not drawn) [Compound 6] | 95% | 100% | 95%
Cc1cc(C2=NOC(c3cc(Cl)cc(Cl)c3)(C(F)(F)F)C2)ccc1C(=O)NC1CS(=O)(=O)C1 (stereo not drawn) [Compound 2] | 65% | 95% | 95%
